Where two headings read alike, the source gives them in different places.
Tested on: P. falciparum 3D7 gametocytes
Experiment: alamarBlue gametocyte viability assay, strain 3D7
Type: cell-based, Plasmodium falciparum
Conditions: for Max Resp: DMSO set at 0%, 100 nM epoxomicin set at -100%; for Curve Class / IC50: stages III-V 3D7 gametocytes; for IC50: 11 concentrations, 1:3 dilution; call rule not given here

SMILES	Max Resp (Malaria Box) [%]	Curve Class (Malaria Box)	IC50 (Malaria Box, read-out: IC50) [µM]	IC50 (Malaria Box)	IC50 (Plasmodium falciparum, 3D7, Malaria Box, read-out: IC50) [µM]
Cl.N=c1n(CCN2CCCCC2)c2ccccc2n1CC(O)c1cccc(Br)c1 (stereo not drawn) [MMV665902]	-99	-1.1	3.72		
COCCn1c(C)nc2ccccc2c1=O [MMV665904]	-7	4		Inactive	
Cc1ccc(-c2cc(C(=O)Nc3ccc(S(=O)(=O)N4CCCCC4)cc3)[nH]n2)c(O)c1 [MMV665906]	-61	-1.2	5.26		
COc1ccc(N2CCN(C(CNC(=O)CC(C)(C)C)c3ccc4c(c3)OCO4)CC2)cc1 (stereo not drawn) [MMV665908]	-26	4		Inactive	
O=C(Nc1nc(-c2ccccn2)cs1)c1ccccc1Br [MMV665909]	-65	-2.2	18.7		
CCOc1ccc(-c2nc(NC(=O)c3cccc(S(C)(=O)=O)c3)sc2C)cc1 [MMV665913]	-15	4		Inactive	
COc1ccccc1N1CCN(C(CNS(=O)(=O)c2ccc(Cl)cc2)c2cccnc2)CC1 (stereo not drawn) [MMV665914]	-63	-2.2	29.6		
COc1ccc(-c2nc(NC(=O)CS(=O)(=O)c3ccc(F)cc3)sc2C)cc1 [MMV665915]	-44	-2.2		Inactive	
COc1ccccc1CNC(=O)CCn1c(=O)[nH]c2ccccc2c1=O [MMV665916]	-1	4		Inactive	
O=C(Nc1ccc(Cl)cc1)N1CCN(c2ccc3nncn3n2)CC1 [MMV665917]	-1	4		Inactive	
O=C(CSc1ccc2nnc(-c3cccc(F)c3)n2n1)Nc1ccc2c(c1)OCO2 [MMV665918]	-14	4		Inactive	
N=c1c2ccccc2nnn1-c1cccc(C(F)(F)F)c1 [MMV665923]	14	4		Inactive	
COc1ccc(C(=O)C2CC2c2ccc(Cl)cc2)cc1 (stereo not drawn) [MMV665924]	-23	4		Inactive	
O=C(CCl)NCCOc1ccc(Cl)cc1Cl [MMV665927]	-88	-2.1	16.6		
CCC(C)NCC(O)(c1ccc(Cl)cc1)c1ccc(Cl)cc1 (stereo not drawn) [MMV665928]	-78	-2.2	5.9		
CCCCNCC(O)(c1ccc(Cl)cc1)c1ccc(Cl)cc1 [MMV665929]	-73	-1.2	2.96		
O=C1c2ccccc2-c2nnc(-c3ccc(Br)cc3)cc21 [MMV665934]	17	4		Inactive	
FC(F)(F)c1ccc(Nc2nnnc3ccccc23)cc1 [MMV665935]	25	4		Inactive	
Cc1ccc(S(=O)(=O)c2c(COC(=O)c3cccc(C)c3)c(-c3ccccc3)nn2C)cc1 [MMV665936]	5	4		Inactive	
CCOc1ccc(/C=C/c2nc(=O)c3ccccc3o2)cc1 [MMV665940]	46	2.2	18.7		
CN(C)c1ccc(C(O)(c2ccc(N(C)C)cc2)c2ccc(N(C)C)cc2)cc1 [MMV665941]	-118	-1.1			5.9
Nc1ccc(-c2nc3cc(Cc4ccc5[nH]c(-c6ccc(N)cc6)nc5c4)ccc3[nH]2)cc1 [MMV665943]	-69	-2.2	29.6		
COc1ccc(CN2CCN(Cc3ccccc3)CC2)c(O)c1 [MMV665944]	-96	-2.1	6.62		
CC(C)=CCN1CCC(C(=O)Nc2ccc(-c3nc4ccccc4[nH]3)cc2)CC1 [MMV665946]	-77	-2.2	14.8		
O=C(Nc1ccccc1O)c1ccc(-c2ccc(Cl)cc2Cl)o1 [MMV665948]	-52	-1.4	5.9		
Oc1ccc(C(=C(Cl)Cl)c2ccc(O)cc2)cc1 [MMV665949]	-40	-1.2	9.35		
O=C(Nc1ccc(F)c(Cl)c1)Nc1ccc(Cl)c(Cl)c1 [MMV665953]	-94	-2.1	18.7		
O=C(NCC1Cc2cccc(-c3ccncc3)c2O1)c1csc2c1CCCC2 (stereo not drawn) [MMV665954]	5	4		Inactive	
CCN(CC)CCCNc1nc(-c2ccc(Cl)cc2)nc2ccccc12 [MMV665961]	-95	-2.1	16.6		

From article PMC3894558, “Chemical signatures and new drug targets for gametocytocidal drug development” (Scientific Reports, 2014)
